In patent US11168179B2, “Macromolecular transition metal complexes for treatment of cancer and process for their preparation” (FACULDADE DE CIÉNCIAS DA UNIVERSIDADE DE LISBOA, priority 2014, dated 2021):
Like-named read-outs stand apart in the source and are kept apart here.

Key:
[1] = system: A2780 ovarian carcinoma cells; experiment: MTT cell viability assay, A2780; format: cell-based, human; conditions: 72 h incubation, read-out: IC50 after a 72 h incubation, A2780
Protocol: (§1) The cultures of human breast (MDA-MB-231; ATCC) and ovarian (A2780, ATCC) carcinoma cell lines, were carried out in DMEM (Gibco) medium containing GlutaMax I (MDA-MB-231) or RPMI (A2780) and were completed with 10% FBS and 1% penicillin-streptomycin and kept at 37° C. in a humidified atmosphere containing 5% de CO2.
(§2) The cell culture was made in flasks containing the medium appropriate to cell proliferation and allowing cell adhesion.
(§3) Upon reaching the required confluence, the cells were harvested through addition of a 0.05% trypsin-EDTA solution (Gibco®). […] For this, the cells were seeded in 200 μl of complete cell medium in 96-well plates. Cell density was 2×10^4 viable cells (MDA-MB-231 and A2780) per well.
(§4) Cells were left to adhere for 24 h, followed by the addition of various dilutions in medium (200 μl) of the test compound. The test compound was first solubilized in DMSO and then in the cell medium and added to the cells at concentrations 1-100 μM. The final DMSO concentrations in the medium were lower than 0.5%. After 24 h and 72 h incubation, 37° C./5% CO2, the medium was substituted by 200 μl of the MTT solution (0.5 mg/ml in phosphate buffer—PBS). After 3-4 h incubation, the MTT solution was removed and the formazan crystals formed by the viable cells were dissolved in DMSO (200 μl). Cell viability was assessed measuring the absorbance at 570 nm, using a plate spectrophotometer.
(§5) The cytotoxicity of the test compound was quantified calculating the drug concentration that inhibits the growth of 50% of cells (IC50) (GraphPad Prism software). The assessment was carried out with at least two independent experiments, each comprising six replicates per concentration. Dose-response curves of cell viability, after a 72 h incubation, are represented in the graphs of the FIGS. 4a and 4b.
Upon reaching the required confluence, the cells were harvested through addition of a 0.05% trypsin-EDTA solution (Gibco®). […] For this, the cells were seeded in 200 μl of complete cell medium in 96-well plates. […]

[2] = system: MCF-7 breast adenocarcinoma cells; experiment: MTT cell viability assay, MCF-7; format: cell-based, human
Protocol: as §2
For this, the cells were seeded in 200 μl of complete cell medium in 96-well plates.
as §4, with “[…] The cytotoxicity of the test compound” for “Cell viability”, “quantified calculating” for “assessed measuring”, “drug concentration that inhibits the growth of 50% of cells (IC50) (GraphPad Prism software). The assessment was carried out with” for “absorbance”, “least two independent experiments, each comprising six replicates per concentration.” for “570 nm, using a plate spectrophotometer.”
Upon reaching the required confluence, the cells were harvested through addition of a 0.05% trypsin-EDTA solution (Gibco®). […] For this, the cells were seeded in 200 μl of complete cell medium in 96-well plates. […] Cells were left to adhere for 24 h, followed by the addition of various dilutions in medium (200 μl) of the test compound. The test compound was first solubilized in DMSO and then in the cell medium and added to the cells at concentrations 1-100 μM. The final DMSO concentrations in the medium were lower than 0.5%. […] The cytotoxicity of the test compound was quantified calculating the drug concentration that inhibits the growth of 50% of cells (IC50) (GraphPad Prism software). The assessment was carried out with at least two independent experiments, each comprising six replicates per concentration.

[3] = system: MDA-MB-231 human breast carcinoma cells; experiment: MTT cell viability assay, MDA-MB-231; format: cell-based; conditions: 72 h incubation, read-out: IC50 after a 72 h incubation, MDA-MB-231
Protocol: as §1, §2, §3, §4, §5

glioma U87 cells = conditions: literature value (J. Biol. Chem. 1997, 272:14041-14044); read-out: value found in the literature for the glioma line; cited from earlier work
[4] = system: human cells of MCF-7 breast cancer; conditions: 24 h incubation, versus untreated control cells (100%)
Description: The intrinsic pathway is triggered by intracellular or extracellular stress. The signals that are transduced in response to these stimuli converge mainly to the mitochondria. This organelle integrates the cell death stimuli, inducing mitochondrial permeabilization and consequent release of pro-apoptotic molecules present therein.

MCF-7 cancer cell line [5] = conditions: immunofluorescence, versus control cells
Description: In this immunofluorescence assay, Alexa Fluor 488® phalloidin, which is a high-affinity filamentous actin (F-actin) probe conjugated to the green-fluorescent Alexa Fluor® 488 dye was used. In order to obtain nuclear staining DAPI (blue) was used (FIG. 9).

MCF-7 cancer cell line [6] = conditions: 48 h of incubation, 10 μM
Description: This assay is widely used to determine if cells are viable, apoptotic, or necrotic through differences in plasma membrane integrity and permeability. All in all, Annexin V/PI is a commonly used approach for studying cell death (Rieger et al. 2011).
Annexin V a marker of early apoptosis. […] Cisplatin was used as a positive control since it is known to induce apoptosis.

[7] = 72 h incubation, read-out: IC50 after a 72 h incubation, MCF-7
[8] = 24 h incubation, read-out: IC50 after a 24 h incubation, MCF-7

Compound	IC50 [1] [µM]	IC50 [2, 7] [µM]	IC50 [3] [µM]	IC50 (glioma U87 cells) [µM]	IC50 [2, 8] [µM]	expression of catalase and SMAC diablo proteins [4]	effect on cytoskeleton (F-actin filaments) (MCF-7 cancer cell line [5])	percentage of Annexin V stained cells in comparison to the control (MCF-7 cancer cell line [6])	type of cell death induced (MCF-7 cancer cell line [6])
N.N.[Cl][Pt][Cl] [Cisplatin, reference compound]	2 ± 0.1	28 ± 6	39 ± 5	130 ± 53					
(2,2′-bipyridine-4,4′-diylbis{methylene}bis(2-{2-(2-hydroxypropanoyloxy)poly(lactic acid)-yl}propanoate)-k^2N,N′)(triphenylphosphane)(η^5-cyclopentadienyl)ruthenium(II) triflate [Compound 5]	3.4 ± 1.3	4.09 ± 1.97	2.7 ± 0.55		4.25 ± 1.15	decrease	cytoskeleton loses its organization	increase	apoptosis
[(1,1′-{1,1′-(1,1′-{2,2′-Bipyridine-4,4′-diylbis(methylene)}bis(oxy)bis(1-oxopropane-2,1-diyl))bis(poly(lactic acid)-yl))}bis(oxy)bis(1-oxopropane-2,1-diyl)di(2S,3S,4S,5R,6R)-3,4,5,6-tetrahydroxyoxane-2-carboxylate)-k^2N,N′](triphenylphosphane)(η^5-cyclopentadienyl)-ruthenium(II) triflate [Compound 6]	2.2 ± 0.85	4.62 ± 1.15	5.96 ± 3.25		5 ± 1.65	decrease	cytoskeleton loses its organization	increase	apoptosis
